Measured values: PubChem BioAssay (NCI)
Values joined by “and” are separate entries in the source; they are usually repeats but may differ in a detail not shown here. Identical values can stand only once.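 Cultured in 96-well plates, cells were exposed to test compound for 48 hours across five concentrations. At the GI50, growth is halved. The concentration for full growth arrest is given as TGI.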

Each compound was assayed on EKVX NSCLC (assay: growth of human tumour cells (NCI), 48 h).
`CN1CCN(C(=O)OCc2nc3c(N4CCOCC4)nc(Cl)nc3n2C)CC1` was tested, and the GI50 was 1.59 µM and the TGI was 2.98 µM.
In the case of `COC(=O)[C@]12CC[C@@H](C)[C@H](C)[C@@H]1C1=CC[C@@H]3[C@@]4(C)C/C(=N\O)[C@H](O)[C@@]5(C)COC(=C45)C[C@@]3(C)[C@]1(C)CC2`, the GI50 is reported as 10.3 µM and the TGI is reported as 24.3 µM.
`Oc1c(CN2CCC(N3CCCCC3)CC2)cc(Cc2cc(CN3CCC(N4CCCCC4)CC3)c(O)c3ncccc23)c2cccnc12` gave a GI50 of 0.57 µM and a TGI of 15.5 µM.
With `Cn1c2ccccc2c2c(-c3ccccc3)[n+]3ccncc3nc21` the GI50 was 51.4 µM and the TGI was greater than 100 µM.
For `COc1ccc(-c2cnnc3c(-c4cccc(C(F)(F)F)c4)cnn23)cc1`, the GI50 was 3.41 µM and the TGI was greater than 100 µM.
For `C=CCCCCCCCCC(=O)[O][Sn]([CH2]CCC)([CH2]CCC)[CH2]CCC`, the GI50 was 0.131 µM and the TGI was 0.32 µM.
Compound `O=C(/C(Br)=C/c1ccccc1)c1ccccc1` has a GI50 of 10.6 µM and a TGI of 23.3 µM.
`C=C1C(=O)O[C@H]2[C@H]1CC/C(Cn1cc(-c3ccc(OC)cc3)nn1)=C\CC[C@@]1(C)O[C@@H]21` gave a GI50 of 2.47 µM and a TGI of 10.3 µM.
With `CCOc1cc2c(Cl)ncnc2c(OCC)c1OCC` the GI50 was 13.3 µM and the TGI was 29.5 µM.
Compound `Oc1ccc2ccccc2c1N=Nc1nccs1` has a GI50 of 0.807 µM and a TGI greater than 54.3 µM.
With `CC(=O)OCCN1c2ccccc2Sc2cnccc21` the TGI was greater than 10 µM.
`CC(C)(CC(=O)Nc1ccccc1)C(=O)O` gave a TGI greater than 100 µM.
With `COc1ccc(/C(COc2c(-c3ccccc3)oc3ccccc3c2=O)=N\O)cc1` the GI50 was 14.2 µM and the TGI was greater than 50 µM.
With `Cn1c(=O)c2[nH]c(SCc3ccccn3)nc2n(C)c1=S` the TGI was greater than 100 µM.
For `COc1cc2c(c(O)c1Br)C(=O)c1c(O)cc(C[C@H](C)O)cc1[C@H]2[C@H]1c2cc(C[C@H](C)O)cc(O)c2C(=O)c2c1cc(OC)c(Br)c2O`, the GI50 was 4.86 µM and 6.86 µM and the TGI was 16.3 µM and 27.5 µM.
In the case of `COc1ccc(-c2cc(=O)c3ccc(O)cc3o2)cc1OC`, the TGI is reported as greater than 100 µM.
Work on `CC[C@]1(O)C[C@@H]2CN(CCc3c([nH]c4ccccc34)[C@@](C(=O)OC)(c3cc4c(cc3OC)N(C)[C@H]3[C@@](O)(C(=O)OC)[C@H](OC(C)=O)[C@]5(CC)C=CCN6CC[C@]43[C@@H]65)C2)C1` yielded a TGI greater than 79 µM.
With `N#CSc1c[nH]c2cccc(/C=C/C(=O)/C=C(/C=C/c3cccc4[nH]cc(SC#N)c34)OB(F)F)c12` the GI50 was 0.916 µM and the TGI was 5.81 µM.
In the case of `COc1cc([N+](=O)[O-])cc2c3c(n(C)c12)[C@@]1(C)CCC2c4ccc(OCc5ccccc5)cc4CCC2C1C3` (some centres undefined), the GI50 is reported as 68.5 µM and the TGI is reported as greater than 100 µM.
With `C=CC(=O)N1CC2(CCN(c3nc(OC4CCN(CCCOC)CC4)nc4c(OCC(F)(F)F)c(-c5c(C)ccc6[nH]ncc56)c(C5CC5)cc34)CC2)C1` the GI50 was 4.33 µM and the TGI was 16.9 µM.
`FC(F)(F)c1cccc(Nc2nccc(-c3cnn4nc(-c5ccccc5)ccc34)n2)c1` showed a GI50 greater than 21.2 µM and a TGI greater than 25 µM.
With `CC[C@@H]1C(=O)N(C)c2cnc(Nc3ccc(C(=O)NC4CCN(C)CC4)cc3OC)nc2N1C1CCCC1` the GI50 was 0.0263 µM and 0.161 µM and the TGI was > 10 µM and 21.5 µM.
Compound `C=C1C(=O)O[C@H]2[C@H]1CC/C(COC(=O)c1ccc3ccccc3c1)=C\CC[C@@]1(C)O[C@@H]21` has a GI50 of 1.63 µM and a TGI of 3.63 µM.
`CC[CH2][Sn]([CH2]CC)([O]C(=O)c1cccnc1SC)[O][Sn]([CH2]CC)([CH2]CC)[O]C(=O)c1cccnc1SC` showed a GI50 of 0.699 µM and a TGI of 2.85 µM.
In the case of `COC1/C=C\C=C(/C)C(=O)NC2=CC(=O)C(=O)C(=C2O)CC(C)CC(OC)C(O)C(C)/C=C(\C)C1OC(N)=O` (centres undefined), the TGI is reported as 32.7 µM.

These compounds were tested on K-562 leukemia (assay: growth of human tumour cells (NCI), 48 h).
Work on `CN1CCN(C(=O)OCc2nc3c(N4CCOCC4)nc(Cl)nc3n2C)CC1` yielded a GI50 of 1.21 µM and a TGI of 15.7 µM.
Compound `COC(=O)[C@]12CC[C@@H](C)[C@H](C)[C@@H]1C1=CC[C@@H]3[C@@]4(C)C/C(=N\O)[C@H](O)[C@@]5(C)COC(=C45)C[C@@]3(C)[C@]1(C)CC2` has a GI50 of 3.77 µM and a TGI of 14.9 µM.
Work on `Oc1c(CN2CCC(N3CCCCC3)CC2)cc(Cc2cc(CN3CCC(N4CCCCC4)CC3)c(O)c3ncccc23)c2cccnc12` yielded a GI50 of 0.617 µM and a TGI of 8.81 µM.
`Cn1c2ccccc2c2c(-c3ccccc3)[n+]3ccncc3nc21` was tested, and the GI50 was greater than 100 µM and the TGI was greater than 100 µM.
In the case of `COc1ccc(-c2cnnc3c(-c4cccc(C(F)(F)F)c4)cnn23)cc1`, the GI50 is reported as greater than 100 µM and the TGI is reported as greater than 100 µM.
Compound `C=CCCCCCCCCC(=O)[O][Sn]([CH2]CCC)([CH2]CCC)[CH2]CCC` has a GI50 of 0.181 µM and a TGI of 0.457 µM.
Compound `CC/C(=C(/c1ccc(O)cc1)c1ccc(OCCNC)cc1)c1ccccc1` has a GI50 of 1.86 µM and a TGI of 4.41 µM.
`O=C(/C(Br)=C/c1ccccc1)c1ccccc1` showed a GI50 of 2.23 µM and a TGI of 9.28 µM.
Work on `C=C1C(=O)O[C@H]2[C@H]1CC/C(Cn1cc(-c3ccc(OC)cc3)nn1)=C\CC[C@@]1(C)O[C@@H]21` yielded a GI50 of 1.3 µM and a TGI of 6.87 µM.
`CCOc1cc2c(Cl)ncnc2c(OCC)c1OCC` was tested, and the GI50 was 2.72 µM and the TGI was 12.5 µM.
With `Oc1ccc2ccccc2c1N=Nc1nccs1` the GI50 was 0.438 µM and the TGI was greater than 100 µM.
With `CC(=O)OCCN1c2ccccc2Sc2cnccc21` the TGI was greater than 10 µM.
`CC(C)(CC(=O)Nc1ccccc1)C(=O)O` was tested, and the TGI was greater than 100 µM.
For `COc1ccc(/C(COc2c(-c3ccccc3)oc3ccccc3c2=O)=N\O)cc1`, the GI50 was 18.9 µM and the TGI was greater than 50 µM.
In the case of `Cn1c(=O)c2[nH]c(SCc3ccccn3)nc2n(C)c1=S`, the TGI is reported as greater than 100 µM.
`COc1cc2c(c(O)c1Br)C(=O)c1c(O)cc(C[C@H](C)O)cc1[C@H]2[C@H]1c2cc(C[C@H](C)O)cc(O)c2C(=O)c2c1cc(OC)c(Br)c2O` was tested, and the GI50 was 2.74 µM and 6.22 µM and the TGI was 67.5 µM and > 100 µM.
For `COc1ccc(-c2cc(=O)c3ccc(O)cc3o2)cc1OC`, the TGI was greater than 100 µM.
`CC[C@]1(O)C[C@@H]2CN(CCc3c([nH]c4ccccc34)[C@@](C(=O)OC)(c3cc4c(cc3OC)N(C)[C@H]3[C@@](O)(C(=O)OC)[C@H](OC(C)=O)[C@]5(CC)C=CCN6CC[C@]43[C@@H]65)C2)C1` gave a GI50 of less than 0.01 µM and a TGI of 14.6 µM.
For `N#CSc1c[nH]c2cccc(/C=C/C(=O)/C=C(/C=C/c3cccc4[nH]cc(SC#N)c34)OB(F)F)c12`, the GI50 was 0.297 µM and the TGI was 1.38 µM.
`COc1cc([N+](=O)[O-])cc2c3c(n(C)c12)[C@@]1(C)CCC2c4ccc(OCc5ccccc5)cc4CCC2C1C3` (some centres undefined) showed a GI50 of 62.5 µM and a TGI greater than 100 µM.
In the case of `C=CC(=O)N1CC2(CCN(c3nc(OC4CCN(CCCOC)CC4)nc4c(OCC(F)(F)F)c(-c5c(C)ccc6[nH]ncc56)c(C5CC5)cc34)CC2)C1`, the GI50 is reported as 2.07 µM and the TGI is reported as 5.84 µM.
For `FC(F)(F)c1cccc(Nc2nccc(-c3cnn4nc(-c5ccccc5)ccc34)n2)c1`, the GI50 was greater than 16.3 µM and the TGI was greater than 25 µM.
With `CC[C@@H]1C(=O)N(C)c2cnc(Nc3ccc(C(=O)NC4CCN(C)CC4)cc3OC)nc2N1C1CCCC1` the GI50 was 0.00367 µM and < 0.01 µM and the TGI was > 10 µM and 3.54 µM.
`C=C1C(=O)O[C@H]2[C@H]1CC/C(COC(=O)c1ccc3ccccc3c1)=C\CC[C@@]1(C)O[C@@H]21` showed a GI50 of 0.39 µM and a TGI of 5.47 µM.
Work on `CC[CH2][Sn]([CH2]CC)([O]C(=O)c1cccnc1SC)[O][Sn]([CH2]CC)([CH2]CC)[O]C(=O)c1cccnc1SC` yielded a GI50 of 0.0756 µM and a TGI of 4.32 µM.
`COC1/C=C\C=C(/C)C(=O)NC2=CC(=O)C(=O)C(=C2O)CC(C)CC(OC)C(O)C(C)/C=C(\C)C1OC(N)=O` (centres undefined) showed a TGI greater than 100 µM.

Each compound was assayed on NCI-H23 lung (assay: growth of human tumour cells (NCI), 48 h).
In the case of `CN1CCN(C(=O)OCc2nc3c(N4CCOCC4)nc(Cl)nc3n2C)CC1`, the GI50 is reported as 1.55 µM and the TGI is reported as 3.3 µM.
For `COC(=O)[C@]12CC[C@@H](C)[C@H](C)[C@@H]1C1=CC[C@@H]3[C@@]4(C)C/C(=N\O)[C@H](O)[C@@]5(C)COC(=C45)C[C@@]3(C)[C@]1(C)CC2`, the GI50 was 6.89 µM and the TGI was 22.3 µM.
`Oc1c(CN2CCC(N3CCCCC3)CC2)cc(Cc2cc(CN3CCC(N4CCCCC4)CC3)c(O)c3ncccc23)c2cccnc12` was tested, and the GI50 was 2.28 µM and the TGI was 14 µM.
Work on `Cn1c2ccccc2c2c(-c3ccccc3)[n+]3ccncc3nc21` yielded a GI50 greater than 100 µM and a TGI greater than 100 µM.
`COc1ccc(-c2cnnc3c(-c4cccc(C(F)(F)F)c4)cnn23)cc1` gave a GI50 of 4.26 µM and a TGI greater than 100 µM.
Work on `C=CCCCCCCCCC(=O)[O][Sn]([CH2]CCC)([CH2]CCC)[CH2]CCC` yielded a GI50 of 0.115 µM and a TGI of 0.254 µM.
Work on `CC/C(=C(/c1ccc(O)cc1)c1ccc(OCCNC)cc1)c1ccccc1` yielded a GI50 of 2.6 µM and a TGI of 7.25 µM.
`O=C(/C(Br)=C/c1ccccc1)c1ccccc1` was tested, and the GI50 was 2.71 µM and the TGI was 8.38 µM.
Work on `C=C1C(=O)O[C@H]2[C@H]1CC/C(Cn1cc(-c3ccc(OC)cc3)nn1)=C\CC[C@@]1(C)O[C@@H]21` yielded a GI50 of 2.06 µM and a TGI of 4.58 µM.
With `CCOc1cc2c(Cl)ncnc2c(OCC)c1OCC` the GI50 was 7.71 µM and the TGI was 24.2 µM.
`Oc1ccc2ccccc2c1N=Nc1nccs1` gave a GI50 of 5.83 µM and a TGI of 27.8 µM.
For `CC(=O)OCCN1c2ccccc2Sc2cnccc21`, the TGI was greater than 10 µM.
